Assay: molar heat capacity at constant pressure; mn = molality of the nth substance listed, in mol/kg
Conditions: 350 kPa, Liquid, high-precision DSC

CSCC[C@H](N)C(=O)O [L-methionine] + O
molar heat capacity at constant pressure [J/K/mol]
Conditions	m1 = 0.0125	m1 = 0.025	m1 = 0.05	m1 = 0.0997	m1 = 0.1501	m1 = 0.1929
278.15 K	75.75	75.8	75.86	76.01	76.17	76.3
283.15 K	75.58	75.64	75.71	75.87	76.04	76.19
288.15 K	75.47	75.53	75.6	75.78	75.96	76.12
293.15 K	75.39	75.46	75.53	75.72	75.92	76.08
298.15 K	75.34	75.41	75.49	75.69	75.89	76.06
303.15 K	75.31	75.38	75.46	75.67	75.88	76.05
308.15 K	75.3	75.37	75.45	75.66	75.88	76.05
313.15 K	75.3	75.37	75.46	75.67	75.9	76.06
318.15 K	75.31	75.38	75.47	75.68	75.92	76.09
323.15 K	75.33	75.4	75.5	75.71	75.95	76.12
328.15 K	75.37	75.44	75.53	75.75	75.99	76.16
333.15 K	75.41	75.48	75.57	75.79	76.03	76.21
